Measurements as given in publication PMC8286840, “Identifying SARS-CoV-2 antiviral compounds by screening for small molecule inhibitors of Nsp3 papain-like protease” (Biochemical Journal, 2021).
Structures can show the parent of a compound that is named as a salt. Where two headings read alike, the source gives them in different places.

Tests used:
[1] = molecular target: T1, SARS-CoV-2 PLpro (nsp3 1564–1878) (Severe acute respiratory syndrome coronavirus 2, UniProt P0DTD1); assay: biochemical; design: FRET-quenched peptide (Pro3) cleavage by PLpro, 10 min pre-incubation, slope over 20 min, normalised to no-compound control; conditions: read-out: % of control remaining
[2] = molecular target: T1, SARS-CoV-2 PLpro (nsp3 1564–1878); assay: biochemical; design: FRET-quenched peptide (Pro3) cleavage by PLpro, 10 min pre-incubation, slope over 20 min, normalised to no-compound control; conditions: read-out: % of control remaining; remark: listed apart in the source

**Q.** For `CCNC(=O)c1cc2c(-c3cc(OCCN4CCCC4)c(Cl)cc3Cl)nc(N)nc2s1` [NVP-BEP800], which remaining activity at 1.25 µM ([1]; Well no.=4917, low concentration screen) is on record?
**A.** 93.5%

**Q.** And the remaining activity at 3.75 µM ([2]; Well no.=4917, high concentration screen)?
**A.** 95.1%

**Q.** For `COc1ccc(-c2ccc3ncc4c(c3c2)n(-c2ccc(N3CCNCC3)c(C(F)(F)F)c2)c(=O)n4C)cn1` [NVP-BGT226], which remaining activity at 1.25 µM ([1]; Well no.=4701, low concentration screen) is on record?
**A.** 99%

**Q.** What about the remaining activity at 3.75 µM ([2]; Well no.=4701, high concentration screen) of the same molecule?
**A.** 97.1%

**Q.** How did the remaining activity at 1.25 µM ([1]; Well no.=4820, low concentration screen) turn out when `Cc1ccc(C(=O)Nc2cccc(C(F)(F)F)c2)cc1Nc1nc(-c2cccnc2)nc2c1cnn2C` [NVP-BHG712] was run?
**A.** 100%

**Q.** And the remaining activity at 3.75 µM ([2]; Well no.=4820, high concentration screen)?
**A.** 96.9%

**Q.** With `Cn1cc(-c2ccc3ncc(Cc4ccc5ncccc5c4)n3n2)cn1` [NVP-BVU972] as the molecule, how does the remaining activity at 1.25 µM ([1]; Well no.=4930, low concentration screen) read?
**A.** 98.1%

**Q.** And the remaining activity at 3.75 µM ([2]; Well no.=4930, high concentration screen)?
**A.** 92.3%

**Q.** How did the remaining activity at 1.25 µM ([1]; Well no.=6878, low concentration screen) turn out when `COc1cc2c(cc1OC(C)C)[C@H](c1ccc(Cl)cc1)N(c1ccc(N(C)C[C@H]3CC[C@H](N4CCN(C)C(=O)C4)CC3)cc1)C(=O)C2` [NVP-CGM097 (sulfate)] was run?
**A.** 95.2%

**Q.** And the remaining activity at 3.75 µM ([2]; Well no.=6878, high concentration screen)?
**A.** 89.6%

**Q.** How did the remaining activity at 1.25 µM ([1]; Well no.=6974, low concentration screen) turn out when `COc1cc2c(cc1OC(C)C)[C@H](c1ccc(Cl)cc1)N(c1ccc(N(C)C[C@H]3CC[C@H](N4CCN(C)C(=O)C4)CC3)cc1)C(=O)C2` [NVP-CGM097] was run?
**A.** 95.7%

**Q.** And the remaining activity at 3.75 µM ([2]; Well no.=6974, high concentration screen)?
**A.** 94.5%

**Q.** With `CNC(=O)c1ccccc1Nc1nc(Nc2ccc(N3CCOCC3)cc2OC)ncc1Cl` [NVP-TAE226] as the molecule, how does the remaining activity at 1.25 µM ([1]; Well no.=4789, low concentration screen) read?
**A.** 103%

**Q.** What about the remaining activity at 3.75 µM ([2]; Well no.=4789, high concentration screen) of the same molecule?
**A.** 105%

**Q.** What does the source list for `CN(C)C(N)=NCCC[C@H](N)C(=O)O` [N^G,N^G-Dimethylarginine hydrochloride]?
**A.** remaining activity at 1.25 µM ([1]; Well no.=689, low concentration screen): 97%; remaining activity at 3.75 µM ([2]; Well no.=689, high concentration screen): 97%

**Q.** How did the remaining activity at 1.25 µM ([1]; Well no.=2005, low concentration screen) turn out when `COc1ccc2cc(CCC(C)=O)ccc2c1` [Nabumetone] was run?
**A.** 102%

**Q.** What about the remaining activity at 3.75 µM ([2]; Well no.=2005, high concentration screen) of the same molecule?
**A.** 101%

**Q.** Which results are given for `CC1CCc2c(N3CCC(O)CC3)c(F)cc3c(=O)c(C(=O)O)cn1c23` (centres unmarked) [Nadifloxacin]?
**A.** remaining activity at 1.25 µM ([1]; Well no.=2003, low concentration screen): 96.2%; remaining activity at 3.75 µM ([2]; Well no.=2003, high concentration screen): 94.8%

**Q.** Which remaining activity at 1.25 µM ([1]; Well no.=4809, low concentration screen) does the source give for `N=C(N)Nc1ccc(C(=O)Oc2ccc3cc(C(=N)N)ccc3c2)cc1` [Nafamostat mesylate] here?
**A.** 104%

**Q.** And the remaining activity at 3.75 µM ([2]; Well no.=4809, high concentration screen)?
**A.** 104%

**Q.** How did the remaining activity at 1.25 µM ([1]; Well no.=8660, low concentration screen) turn out when `CCOc1ccc2ccccc2c1C(=O)N[C@@H]1C(=O)N2[C@@H]1SC(C)(C)[C@@H]2C(=O)O` [Nafcillin (sodium monohydrate)] was run?
**A.** 99%

**Q.** What about the remaining activity at 3.75 µM ([2]; Well no.=8660, high concentration screen) of the same molecule?
**A.** 98.1%

**Q.** `CCOc1ccc2ccccc2c1C(=O)N[C@@H]1C(=O)N2[C@@H]1SC(C)(C)[C@@H]2C(=O)O` [Nafcillin Sodium] was tested. Which remaining activity at 1.25 µM ([1]; Well no.=4690, low concentration screen) did it give?
**A.** 104%

**Q.** And the remaining activity at 3.75 µM ([2]; Well no.=4690, high concentration screen)?
**A.** 101%

**Q.** Which results are given for `CCN(CC)CCOC(=O)C(Cc1cccc2ccccc12)CC1CCCO1` (centres unmarked) [Naftidrofuryl (oxalate)]?
**A.** remaining activity at 1.25 µM ([1]; Well no.=7050, low concentration screen): 98%; remaining activity at 3.75 µM ([2]; Well no.=7050, high concentration screen): 93.7%

**Q.** `CN(C/C=C/c1ccccc1)Cc1cccc2ccccc12` [Naftifine HCl] was tested. Which remaining activity at 1.25 µM ([1]; Well no.=4983, low concentration screen) did it give?
**A.** 96.8%

**Q.** What about the remaining activity at 3.75 µM ([2]; Well no.=4983, high concentration screen) of the same molecule?
**A.** 96.2%

**Q.** `COc1ccccc1N1CCN(CC(O)COc2cccc3ccccc23)CC1` (centres unmarked) [Naftopidil dihydrochloride] was tested. Which remaining activity at 1.25 µM ([1]; Well no.=1084, low concentration screen) did it give?
**A.** 96.1%

**Q.** And the remaining activity at 3.75 µM ([2]; Well no.=1084, high concentration screen)?
**A.** 95.6%

**Q.** Which results are given for `COc1ccccc1N1CCN(CC(O)COc2cccc3ccccc23)CC1` (centres unmarked) [Naftopidil]?
**A.** remaining activity at 1.25 µM ([1]; Well no.=7523, low concentration screen): 101%; remaining activity at 3.75 µM ([2]; Well no.=7523, high concentration screen): 97.2%

**Q.** Which results are given for `Oc1ccc2c3c1O[C@H]1[C@@H](O)CC[C@@]4(O)[C@@H](C2)N(CC2CCC2)CC[C@]314` [Nalbuphine]?
**A.** remaining activity at 1.25 µM [1]: 95.6%; remaining activity at 3.75 µM [2]: 97.3%

**Q.** Which results are given for `CCn1cc(C(=O)O)c(=O)c2ccc(C)nc21` [Nalidixic acid sodium]?
**A.** remaining activity at 1.25 µM ([1]; Well no.=951, low concentration screen): 101%; remaining activity at 3.75 µM ([2]; Well no.=951, high concentration screen): 102%

**Q.** Which remaining activity at 1.25 µM ([1]; Well no.=3256, low concentration screen) does the source give for `CCn1cc(C(=O)O)c(=O)c2ccc(C)nc21` [Nalidixic acid] here?
**A.** 99.8%

**Q.** What about the remaining activity at 3.75 µM ([2]; Well no.=3256, high concentration screen) of the same molecule?
**A.** 99.3%

**Q.** What does the source list for `C=CCN1CC[C@]23c4c5ccc(O)c4O[C@H]2/C(=N/N=C2\CC[C@@]4(O)[C@H]6Cc7ccc(O)c8c7[C@@]4(CCN6CC=C)[C@H]2O8)CC[C@@]3(O)[C@H]1C5` [Naloxonazine dihydrochloride]?
**A.** remaining activity at 1.25 µM ([1]; Well no.=894, low concentration screen): 105%; remaining activity at 3.75 µM ([2]; Well no.=894, high concentration screen): 107%

**Q.** Which remaining activity at 1.25 µM ([1]; Well no.=2062, low concentration screen) does the source give for `C=CCN1CC[C@]23c4c5ccc(O)c4O[C@H]2/C(=N/N=C2\CC[C@@]4(O)[C@H]6Cc7ccc(O)c8c7[C@@]4(CCN6CC=C)[C@H]2O8)CC[C@@]3(O)[C@H]1C5` [Naloxonazine] here?
**A.** 101%

**Q.** And the remaining activity at 3.75 µM ([2]; Well no.=2062, high concentration screen)?
**A.** 105%

**Q.** Which results are given for `C=CCN1CC[C@]23c4c5ccc(O)c4O[C@H]2/C(=N/NC(=O)c2ccccc2)CC[C@@]3(O)[C@H]1C5` [Naloxone benzoylhydrazone]?
**A.** remaining activity at 1.25 µM ([1]; Well no.=798, low concentration screen): 93.2%; remaining activity at 3.75 µM ([2]; Well no.=798, high concentration screen): 99.5%

**Q.** How did the remaining activity at 1.25 µM ([1]; Well no.=907, low concentration screen) turn out when `C=CCN1CC[C@]23c4c5ccc(O)c4O[C@H]2C(=O)CC[C@@]3(O)[C@H]1C5` [Naloxone hydrochloride] was run?
**A.** 103%

**Q.** What about the remaining activity at 3.75 µM ([2]; Well no.=907, high concentration screen) of the same molecule?
**A.** 105%

**Q.** `C=CCN1CC[C@]23c4c5ccc(O)c4O[C@H]2C(=O)CC[C@@]3(O)[C@H]1C5` [Naloxone] was tested. Which remaining activity at 1.25 µM ([1]; Well no.=2060, low concentration screen) did it give?
**A.** 104%

**Q.** What about the remaining activity at 3.75 µM ([2]; Well no.=2060, high concentration screen) of the same molecule?
**A.** 103%

**Q.** Which remaining activity at 1.25 µM ([1]; Well no.=8147, low concentration screen) does the source give for `O=C1CC[C@@]2(O)[C@H]3Cc4ccc(O)c5c4[C@@]2(CCN3CC2CC2)[C@H]1O5` [Naltrexone (Hydrochloride)] here?
**A.** 98.3%

**Q.** And the remaining activity at 3.75 µM ([2]; Well no.=8147, high concentration screen)?
**A.** 95.1%

**Q.** What does the source list for `O=C1CC[C@@]2(O)[C@H]3Cc4ccc(O)c5c4[C@@]2(CCN3CC2CC2)[C@H]1O5` [Naltrexone hydrochloride]?
**A.** remaining activity at 1.25 µM ([1]; Well no.=997, low concentration screen): 97.6%; remaining activity at 3.75 µM ([2]; Well no.=997, high concentration screen): 100%

**Q.** Which results are given for `O=C1CC[C@@]2(O)[C@H]3Cc4ccc(O)c5c4[C@@]2(CCN3CC2CC2)[C@H]1O5` [Naltrexone.HCl]?
**A.** remaining activity at 1.25 µM ([1]; Well no.=1883, low concentration screen): 88.3%; remaining activity at 3.75 µM ([2]; Well no.=1883, high concentration screen): 92.8%

**Q.** For `Oc1ccc2c3c1O[C@H]1c4oc5ccccc5c4C[C@@]4(O)[C@@H](C2)N(CC2CC2)CC[C@]314` [Naltriben methanesulfonate hydrate], which remaining activity at 1.25 µM ([1]; Well no.=1698, low concentration screen) is on record?
**A.** 95.8%

**Q.** What about the remaining activity at 3.75 µM ([2]; Well no.=1698, high concentration screen) of the same molecule?
**A.** 95.9%

**Q.** Which remaining activity at 1.25 µM ([1]; Well no.=1036, low concentration screen) does the source give for `Oc1ccc2c3c1O[C@H]1c4oc5ccccc5c4C[C@@]4(O)[C@@H](C2)N(CC2CC2)CC[C@]314` [Naltriben methanesulfonate] here?
**A.** 92.8%

**Q.** And the remaining activity at 3.75 µM ([2]; Well no.=1036, high concentration screen)?
**A.** 97.4%

**Q.** How did the remaining activity at 1.25 µM ([1]; Well no.=7227, low concentration screen) turn out when `Oc1ccc2c3c1O[C@H]1c4[nH]c5ccccc5c4C[C@@]4(O)[C@@H](C2)N(CC2CC2)CC[C@]314` [Naltrindole (hydrochloride)] was run?
**A.** 103%

**Q.** What about the remaining activity at 3.75 µM ([2]; Well no.=7227, high concentration screen) of the same molecule?
**A.** 97.5%

**Q.** What does the source list for `Oc1ccc2c3c1O[C@H]1c4[nH]c5ccccc5c4C[C@@]4(O)[C@@H](C2)N(CC2CC2)CC[C@]314` [Naltrindole hydrochloride]?
**A.** remaining activity at 1.25 µM ([1]; Well no.=1053, low concentration screen): 92.8%; remaining activity at 3.75 µM ([2]; Well no.=1053, high concentration screen): 93.2%

**Q.** For `Oc1ccc2c3c1O[C@H]1c4[nH]c5ccccc5c4C[C@@]4(O)[C@@H](C2)N(CC2CC2)CC[C@]314` [Naltrindole.HCl], which remaining activity at 1.25 µM ([1]; Well no.=1644, low concentration screen) is on record?
**A.** 106%

**Q.** And the remaining activity at 3.75 µM ([2]; Well no.=1644, high concentration screen)?
**A.** 104%

**Q.** For `CNC(=O)[C@H]1O[C@@H](n2cnc3c(NCc4cccc(I)c4)nc(Cl)nc32)[C@H](O)[C@@H]1O` [Namodenoson], which remaining activity at 1.25 µM ([1]; Well no.=8451, low concentration screen) is on record?
**A.** 104%

**Q.** What about the remaining activity at 3.75 µM ([2]; Well no.=8451, high concentration screen) of the same molecule?
**A.** 104%
